Among the data in patent US6433165B1, “Chemokine receptor antagonists and methods of use therefor” (Millennium Pharmaceuticals, Inc., priority 1998, dated 2002) are IC50 values, retold here.

One assay concerns the target T1, RANTES / MIP-1α binding to THP-1 cell membranes (Homo sapiens, UniProt P32246).
T1 sequence (P32246 1-355): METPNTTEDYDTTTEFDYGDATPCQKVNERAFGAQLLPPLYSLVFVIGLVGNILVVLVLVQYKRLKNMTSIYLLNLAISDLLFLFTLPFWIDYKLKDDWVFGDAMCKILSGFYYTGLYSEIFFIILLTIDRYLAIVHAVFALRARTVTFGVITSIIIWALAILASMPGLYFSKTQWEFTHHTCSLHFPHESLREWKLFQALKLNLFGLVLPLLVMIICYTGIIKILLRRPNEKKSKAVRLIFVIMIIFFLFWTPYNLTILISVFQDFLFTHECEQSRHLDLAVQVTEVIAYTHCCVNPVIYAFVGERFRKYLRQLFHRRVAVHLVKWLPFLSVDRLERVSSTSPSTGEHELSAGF
The assay can be described thus: Receptor binding assay, 125I-RANTES or 125I-MIP-1α binding to THP-1 cell membranes.
Settings: not given
As for the experimental part:
Membranes were prepared from THP-1 cells (ATCC #TIB202). Cells were harvested by centrifugation, washed twice with PBS (phosphate-buffered saline), and the cell pellets were frozen at −70 to −85° C. […] This procedure results in cell lysis. The suspension was mixed well to resuspend all of the frozen cell pellet. Nuclei and cell debris were removed by centrifugation of 400×g for 10 minutes at 4° C. The supernatant was transferred to a fresh tube and the membrane fragments were collected by centrifugation at 25,000×g for 30 minutes at 4° C. The supernatant was aspirated and the pellet was resuspended in freezing buffer consisting of 10 mM HEPES pH 7.5, 300 mM sucrose, 1 μg/ml each aprotinin, leupeptin, and chymostatin, and 10 μg/ml PMSF (approximately 0.1 ml per each 10^8 cells). All clumps were resolved using a minihomogenizer, and the total protein concentration was determined using a protein assay kit (Bio-Rad, Hercules, Calif., cat #500-0002). The membrane solution was then aliquoted and frozen at −70 to −85° C. until needed. Binding Assays utilized the membranes described above. […] The binding reactions were terminated by harvesting the membranes by rapid filtration through glass fiber filters (GF/B or GF/C, Packard) which were presoaked in 0.3% polyethyleneimine. The filters were rinsed with approximately 600 μl of binding buffer containing 0.5 M NaCl, dried, and the amount of bound radioactivity was determined by scintillation counting in a Topcount beta-plate counter.
In turn, `O=C(NCC1(CCCN2CCC(O)(c3ccc(Cl)cc3)CC2)c2ccccc2CSc2ccccc21)Oc1ccccc1` (centres unmarked) [Example 22, Phenyl N-[11-[3-(4-(4-chlorophenyl)-4-hydroxypiperidino)propyl]-6,11-dihydrodibenzo[b,e]thiepin-11-yl)methyl Carbamate] came in with an IC50 of less than 1000 nM. As for `N#CC1(CCCN2CCC(O)(c3ccc(Cl)cc3)CC2)c2ccccc2CCc2ccccc21` [Example 2, 4-(4-Chlorophenyl)-1-[3-(5-cyano-10,11-dihydro-5H-dibenzo[a,d]cycloheptene-5-yl)propyl]piperidin-4-ol], the IC50 is less than 1000 nM.

Compound `N#CC1(CCCN2CCC(O)(c3ccc(Cl)cc3)CC2)c2ccccc2C[S+]([O-])c2ccccc21` (single isomer, unassigned) [Example 14, 4-(4-Chlorophenyl)-1-[3-(11-cyano-6,11-dihydro-5-oxodibenzo[b,e]thiepin-11-yl)propyl]piperidin-4-ol] registered an IC50 of less than 1000 nM.

For the compound `O=C(CCN1CCC(O)(c2ccc(Cl)cc2)CC1)C1c2ccccc2CCc2ccccc21` [Example 24, 4-(4-Chlorophenyl)-1-[3-(10,11-dihydro-5H-dibenzo[a,d]cycloheptene-5-yl)-3-propioyl]piperidin-4-ol], the IC50 is less than 1000 nM. Take `N#CC1(CCCN2CCC(O)(c3ccc(Cl)cc3)CC2)c2ccccc2CSc2ccccc21` (centres unmarked) [Example 10, 4-(4-Chlorophenyl)-1-[3-(11-cyano-6,11-dihydrodibenzo[b,e]thiepin-11-yl)propyl]piperidin-4-ol]: the IC50 was less than 1000 nM.

The same assay, now with this note: 125I-RANTES or 125I-MIP-1α as ligand; THP-1 cell membranes; 60 min at room temperature; read-out: IC50 (inhibitor concentration required for 50% inhibition of specific binding).
As to `N#CC1(CCCN2CCC(O)(c3ccc(Cl)cc3)CC2)c2ccccc2COc2ccc(F)cc21` (centres unmarked) [Example 5, 4-(4-Chlorophenyl)-1-[3-(11-cyano-6,11-dihydro-2-fluorodibenz[b,e]oxepin-11-yl)propyl]piperidin-4-ol], the IC50 is less than 1000 nM. With `OC1(c2ccc(Cl)cc2)CCN(CCCC2c3ccccc3CSc3ccccc32)CC1` (centres unmarked) [Example 17, 4-(4-Chlorophenyl)-1-[3-(6,11-dihydrodibenzo[b,e]thiepin-11-yl)propyl]piperidin-4-ol], the IC50 was less than 1000 nM. In the case of `OC1(c2ccc(Cl)cc2)CCN(CCCC2c3ccccc3COc3ccccc32)CC1` (centres unmarked) [Example 19, 4-(4-Chlorophenyl)-1-[3-(6,11-dihydrodibenz[b,e]oxepin-11-yl)propyl]piperidin-4-ol], the IC50 is less than 1000 nM.

For the compound `N#CC1(CCCN2CCC(O)(c3ccc(Cl)cc3)CC2)c2ccccc2COc2ccccc21` (centres unmarked) [Example 3, 4-(4-Chlorophenyl)-1-[3-(11-cyano-6,11-dihydrodibenz[b,e]oxepin-11-yl)propyl]piperidin-4-ol], the IC50 was less than 1000 nM.

As for `N#CC1(CCCN2CCC(O)(c3ccc(Cl)cc3)CC2)c2ccccc2CS(=O)(=O)c2ccccc21` (centres unmarked) [Example 16, 4-(4-Chlorophenyl)-1-[3-(11-cyano-6,11-dihydro-5,5-dioxodibenzo[b,e]thiepin-11-yl)propyl]piperidin-4-ol], the IC50 is less than 1000 nM. The same measure, in the same setting: the same measure for `N#CC1(CCCN2CCC(O)(c3ccc(F)cc3)CC2)c2ccccc2COc2ccccc21` (centres unmarked) [Example 4, 1-[3-(11-Cyano-6,11-dihydrodibenz[b,e]oxepin-11-yl)propyl]-4-(4-fluorophenyl)piperidin-4-ol]: less than 1000 nM; for `N#CC1(CCCN2CCC(O)(c3ccccc3)CC2)c2ccccc2CSc2ccccc21` (centres unmarked) [Example 11, 1-[3-(11-Cyano-6,11-dihydrodibenzo[b,e]thiepin-11-yl)propyl]-4-phenylpiperidin-4-ol]: less than 100000 nM. Consider `N#CC1(CCCN2CCC(O)(c3ccc(Cl)cc3)CC2)c2ccccc2CSc2ccc(Br)cc21` (centres unmarked) [Example 13, 1-[3-(2-Bromo-11-cyano-6,11-dihydrodibenzo[b,e]thiepin-11-yl)propyl]-4-(4-chlorophenyl)piperidin-4-ol], for which the IC50 was less than 1000 nM.

Regarding `Cc1ccc2c(c1)C(C#N)(CCCN1CCC(O)(c3ccc(Cl)cc3)CC1)c1ccccc1CO2` (centres unmarked) [Example 7, 4-(4-Chlorophenyl)-1-[3-(11-cyano-6,11-dihydro-2-methyldibenz[b,e]oxepin-11-yl)propyl]piperidin-4-ol], the IC50 was less than 1000 nM.

Turning to `N#CC1(CCCN2CCC(O)(c3ccc(Cl)cc3)CC2)c2ccccc2C=Cc2ccccc21` [Example 1, 4-(4-Chlorophenyl)1-[3-(5-cyano-5H-dibenzo[a,d]cycloheptene-5-yl)propyl]piperidin-4-ol], the IC50 is less than 1000 nM. On the same count and under the same terms, under `OC1(c2ccc(Cl)cc2)CCN(CCCC2c3ccccc3CCc3ccccc32)CC1` [Example 18, 4-(4-Chlorophenyl)-1-[3-(10,11-dihydro-5H-dibenzo[a,d]cycloheptene-5-yl)propyl]piperidin-4-ol] stands less than 1000 nM; under `N#CC1(CCCN2CCC(O)(c3ccc(Cl)cc3)CC2)c2ccccc2COc2ccc(Br)cc21` (centres unmarked) [Example 6, 1-[3-(2-Bromo-11-cyano-6,11-dihydrodibenz[b,e]oxepin-11-yl)propyl]-4-(4-chlorophenyl)piperidin-4-ol], less than 1000 nM. On to `O=C(NCCCO)NCC1(CCCN2CCC(O)(c3ccc(Cl)cc3)CC2)c2ccccc2CSc2ccccc21` (centres unmarked) [Example 23, 1-[11-[3-(4-(4-chlorophenyl)-4-hydroxypiperidino)propyl]-6,11-dihydrodibenzo[b,e]thiepin-11-yl]methyl-8-(3-hydroxypropyl)urea], for which the IC50 is less than 10000 nM. On the same count and under the same terms, the same measure for `N#CC1(CCCN2CCC(O)(c3ccc(Br)cc3)CC2)c2ccccc2CSc2ccccc21` (centres unmarked) [Example 12, 4-(4-Bromophenyl)-1-[3-(11-cyano-6,11-dihydrodibenzo[b,e]thiepin-11-yl)propyl]piperidin-4-ol]: less than 1000 nM.

The assay is the same for the next values; noted with them: read-out: IC50 (inhibitor concentration required for 50% inhibition of specific binding); 125I-RANTES or 125I-MIP-1α as ligand; THP-1 cell membranes; 60 min at room temperature.
For `N#CC1(CCCN2CCC(O)(c3ccc(Cl)cc3)CC2)c2ccccc2C[S+]([O-])c2ccccc21` (single isomer, unassigned) [Example 15, 4-(4-Chlorophenyl)-1-[3-(11-cyano-6,11-dihydro-5-oxodibenzo[b,e]thiepin-11-yl)propyl]piperidin-4-ol], the IC50 was less than 1000 nM.
